Active and inactive are the calls of the source.
Tests used:
[1] = tested on: Mus musculus; test: Anti-inflammatory activity in DSS-induced ulcerative colitis C57BL/6 mouse model assessed as decrease in NLRP3 protein expression in colon at 10 mg/kg,ip administrated for 9 days by Western blotting analysis; assay type: functional, organism-based; conditions: time 9.0 day
[2] = Drug distribution in Sprague-Dawley rat kidney at 1 mg/kg,iv measured for 0.5 to 2 hrs by HPLC-MS/MS analysis; assay type: ADME, organism-based; conditions: in vivo, time 0.5-2 hrs
[3] = tested on: Mus musculus; test: Anti-inflammatory activity in DSS-induced ulcerative colitis C57BL/6 mouse model assessed as decrease in caspase-1 p20 protein expression in colon at 10 mg/kg,ip administrated for 9 days by Western blotting analysis; assay type: functional, organism-based; conditions: time 9.0 day
[4] = tested on: Mus musculus; test: Anti-inflammatory activity in DSS-induced ulcerative colitis C57BL/6 mouse model assessed as decrease in IL-1beta expression in colon at 10 mg/kg,ip administrated for 9 days by immunohistochemistry analysis; assay type: functional, organism-based; conditions: time 9.0 day
[5] = Subacute toxicity in C57BL/6 mouse assessed as colon histological changes at 100 mg/kg,ip administrated for 14 days; assay type: organism-based; conditions: in vivo, 336 h, time 14 day
[6] = tested on: Mus musculus; test: Anti-inflammatory activity in DSS-induced ulcerative colitis C57BL/6 mouse model assessed as increase in body weight at 10 mg/kg,ip administrated for 9 days; assay type: functional, organism-based; conditions: time 9.0 day
[7] = Drug distribution in Sprague-Dawley rat heart at 1 mg/kg,iv measured for 0.5 to 2 hrs by HPLC-MS/MS analysis; assay type: ADME, organism-based; conditions: in vivo, time 0.5-2 hrs
[8] = Subacute toxicity in C57BL/6 mouse assessed as change in liver weight at 100 mg/kg,ip administrated for 14 days; assay type: organism-based; conditions: in vivo, 336 h, time 14 day
[9] = Acute toxicity in Kunming mouse model assessed as ruffled fur at 1000 mg/kg,IG administration for 7 days; assay type: organism-based; conditions: in vivo, po, 168 h, time 7 day
[10] = Subacute toxicity in C57BL/6 mouse assessed as change in heart weight at 100 mg/kg,ip administrated for 14 days; assay type: organism-based; conditions: in vivo, 336 h, time 14 day
[11] = Subacute toxicity in C57BL/6 mouse assessed as change in kidney weight at 100 mg/kg,ip administrated for 14 days; assay type: organism-based; conditions: in vivo, 336 h, time 14 day
[12] = Drug distribution in Sprague-Dawley rat brain at 1 mg/kg,iv measured for 0.5 to 2 hrs by HPLC-MS/MS analysis; assay type: ADME, organism-based; conditions: in vivo, time 0.5-2 hrs
[13] = Subacute toxicity in C57BL/6 mouse assessed as change in spleen weight at 10 mg/kg,ip administrated for 14 days; assay type: organism-based; conditions: in vivo, 336 h, time 14 day
[14] = Subacute toxicity in C57BL/6 mouse assessed as liver histological changes at 100 mg/kg,ip administrated for 14 days; assay type: organism-based; conditions: in vivo, 336 h, time 14 day
[15] = Cmax in Sprague-Dawley rat at 1 mg/kg,iv measured after 24 hrs by HPLC-MS/MS analysis; assay type: ADME, organism-based; design: dose 1 mg/kg, time 24 hrs, route iv; conditions: in vivo
[16] = Drug distribution in Sprague-Dawley rat spleen at 1 mg/kg,iv measured for 0.5 to 2 hrs by HPLC-MS/MS analysis; assay type: ADME, organism-based; conditions: in vivo, time 0.5-2 hrs
[17] = tested on: Mus musculus; test: Anti-inflammatory activity in DSS-induced ulcerative colitis C57BL/6 mouse model assessed as reduction in crypt necrosis in colon at 10 mg/kg,ip administrated for 9 days by Hematoxylin-eosin staining based microscopic analysis; assay type: functional, organism-based; conditions: time 9.0 day
[18] = Subacute toxicity in C57BL/6 mouse assessed as spleen histological changes at 100 mg/kg,ip administrated for 14 days; assay type: organism-based; conditions: in vivo, 336 h, time 14 day
[19] = Acute toxicity in Kunming mouse model assessed as behavioral abnormalities at 1000 mg/kg,IG administration for 7 days; assay type: organism-based; conditions: in vivo, po, 168 h, time 7 day
[20] = tested on: Mus musculus; test: Anti-inflammatory activity in C57BL/6 mouse assessed as inhibition of LPS-induced IL-1beta secretion at 10 mg/kg,ip administrated for 1 hr followed by LPS stimulation for 2.5 hrs by ELISA analysis; assay type: functional, organism-based
[21] = tested on: J774.A1; test: Inhibition of NF-kappaB pathway in mouse J774.A1 cells assessed as inhibition of LPS-induced IL-6 secretion at 0.1 to 30 uM pretreated for 1hr followed by LPS addition for 6 hrs by ELISA; assay type: cell-based; conditions: dose 0.1-30 µM, time 7.0 hrs
[22] = Acute toxicity in Kunming mouse model assessed as clonic convulsion at 1000 mg/kg,IG administration for 7 days; assay type: organism-based; conditions: in vivo, po, 168 h, time 7 day
[23] = Half life in Sprague-Dawley rat at 1 mg/kg,iv measured after 24 hrs by HPLC-MS/MS analysis; assay type: ADME, organism-based; conditions: in vivo
[24] = target: T1, Interferon-inducible protein AIM2 (Mus musculus) (UniProt Q91VJ1); test: Inhibition of AIM2 inflammasome in mouse J774.A1 cells assessed as inhibition of IL-1 beta secretion at 10 uM pretreated with LPS and compound for 1 hr and later stimulated with poly (dA:dT) for 8 hrs by ELISA; assay type: cell-based; conditions: time 9.0 hrs
T1 sequence (whole entry): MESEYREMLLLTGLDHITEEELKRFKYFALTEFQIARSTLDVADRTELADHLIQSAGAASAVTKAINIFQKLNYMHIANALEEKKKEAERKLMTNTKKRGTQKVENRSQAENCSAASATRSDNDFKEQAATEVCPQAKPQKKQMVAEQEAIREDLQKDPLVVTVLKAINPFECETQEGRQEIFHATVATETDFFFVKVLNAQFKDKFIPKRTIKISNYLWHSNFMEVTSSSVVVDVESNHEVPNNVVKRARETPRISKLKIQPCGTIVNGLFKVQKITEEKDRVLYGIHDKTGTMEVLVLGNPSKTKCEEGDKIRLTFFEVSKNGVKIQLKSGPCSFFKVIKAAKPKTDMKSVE

[25] = Acute toxicity in Kunming mouse model assessed as change in body weight at 1000 mg/kg,IG administration for 7 days; assay type: organism-based; conditions: in vivo, po, 168 h, time 7 day
[26] = target: NACHT, LRR and PYD domains-containing protein 3 (Homo sapiens, UniProt Q96P20); test: Inhibition of NLRP3 inflammasome in human U-937 cells assessed as downregulation of LPS/ATP-induced caspase-1 p20 expression at 3 to 30 uM primed with LPS for 4.5 hrs followed by compound addition for 2.5 hrs and stimulated with […] for 13 hrs by Western blotting analysis; assay type: cell-based; conditions: dose 3-30 µM, time 15.5 hrs
[27] = tested on: Mus musculus; test: Anti-inflammatory activity in DSS-induced ulcerative colitis C57BL/6 mouse model assessed as decrease in IL-1beta p17 protein expression in colon at 10 mg/kg,ip administrated for 9 days by Western blotting analysis; assay type: functional, organism-based; conditions: time 9.0 day
[28] = Stability of compound in rat plasma measured for 48 hrs; assay type: ADME, cell-free
[29] = tested on: Mus musculus; test: Anti-inflammatory activity in DSS-induced ulcerative colitis C57BL/6 mouse model assessed as decrease in pro-IL-1beta protein expression in colon at 10 mg/kg,ip administrated for 9 days by Western blotting analysis; assay type: functional, organism-based; conditions: time 9.0 day
[30] = tested on: Mus musculus; test: Anti-inflammatory activity in DSS-induced ulcerative colitis C57BL/6 mouse model assessed as reduction in disease activity index (DAI) score at 10 mg/kg,ip administrated for 9 days; assay type: functional, organism-based; conditions: time 9.0 day
[31] = Subacute toxicity in C57BL/6 mouse assessed as change in colon weight at 100 mg/kg,ip administrated for 14 days; assay type: organism-based; conditions: in vivo, 336 h, time 14 day
[32] = Cytotoxicity against human HL7702 cells incubated for 48 hrs by resazurin reagent based assay; assay type: toxicity, cell-based; conditions: HL7702 (L02) cells
[33] = tested on: Mus musculus; test: Anti-inflammatory activity in DSS-induced ulcerative colitis C57BL/6 mouse model assessed as reduction in mucosal damage in colon at 10 mg/kg,ip administrated for 9 days by Hematoxylin-eosin staining based microscopic analysis; assay type: functional, organism-based; conditions: time 9.0 day

Sequence of NACHT, LRR and PYD domains-containing protein 3 (Q96P20 whole entry, the tested form may be a part): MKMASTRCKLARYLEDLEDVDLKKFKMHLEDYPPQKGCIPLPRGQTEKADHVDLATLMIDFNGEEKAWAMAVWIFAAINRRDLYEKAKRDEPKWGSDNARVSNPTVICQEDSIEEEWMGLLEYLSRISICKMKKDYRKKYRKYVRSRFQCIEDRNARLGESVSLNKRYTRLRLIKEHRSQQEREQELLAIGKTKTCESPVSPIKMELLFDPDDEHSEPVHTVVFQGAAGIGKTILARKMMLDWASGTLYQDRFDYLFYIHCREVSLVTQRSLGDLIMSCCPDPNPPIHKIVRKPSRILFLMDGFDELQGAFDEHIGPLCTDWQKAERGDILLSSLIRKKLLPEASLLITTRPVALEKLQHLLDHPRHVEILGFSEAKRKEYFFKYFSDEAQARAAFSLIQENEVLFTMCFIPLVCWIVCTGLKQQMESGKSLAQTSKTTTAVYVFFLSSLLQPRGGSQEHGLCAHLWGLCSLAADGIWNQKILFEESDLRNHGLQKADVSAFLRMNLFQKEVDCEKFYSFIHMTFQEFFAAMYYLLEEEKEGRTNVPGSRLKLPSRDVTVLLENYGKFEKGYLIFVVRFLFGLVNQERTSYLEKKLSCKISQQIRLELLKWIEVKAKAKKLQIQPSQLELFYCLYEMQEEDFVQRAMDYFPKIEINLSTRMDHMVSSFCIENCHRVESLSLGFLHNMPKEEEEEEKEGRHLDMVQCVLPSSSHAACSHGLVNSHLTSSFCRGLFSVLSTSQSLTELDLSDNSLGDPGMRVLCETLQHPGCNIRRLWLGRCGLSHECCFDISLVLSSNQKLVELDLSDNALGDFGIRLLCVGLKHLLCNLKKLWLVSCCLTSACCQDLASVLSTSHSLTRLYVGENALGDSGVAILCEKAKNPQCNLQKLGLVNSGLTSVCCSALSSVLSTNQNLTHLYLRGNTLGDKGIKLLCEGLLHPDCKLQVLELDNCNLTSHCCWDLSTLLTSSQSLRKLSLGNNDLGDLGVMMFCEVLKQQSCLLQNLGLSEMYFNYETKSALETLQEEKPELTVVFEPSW

CCCNS(=O)(=O)c1ccc2c(c1)CC(N(Cc1cc(Cl)ccc1OCCOC)C(=O)c1cc3ccccc3o1)C2 (racemic)
active: Activity [1] | Activity [3] | Activity [4] | Activity [6] | Activity [17] | Activity [20] | inhibition [26] | Activity [27] | Activity [29] | Activity [30] | Activity [33]
> 1000 µM: CC50 at 48 h [32]
Active: Drug uptake [2] | Drug uptake [7] | Drug uptake [12] | Drug uptake [16]
Non-Toxic: Activity [5] | Activity [8] | Activity [9] | Activity [10] | Activity [11] | Activity [13] | Activity [14] | Activity [18] | Activity [19] | Activity [22] | Activity [25] | Activity [31]
219 ng/mL: Cmax [15]
Stable: Stability [28]
inactive: inhibition [21] | inhibition [24]
1.5 h: half-life [23]
